Source: the NIST ThermoML archive (doi:10.1021/acs.jced.6b00606)
± gives the expanded uncertainty stated by the source.

Assay: xn = mol fraction of the nth substance listed
Conditions: 100 kPa, Liquid; for speed of sound: Frequency=3 MHz, Sing-around technique in a fixed-path interferometer; for mass density: Vibrating tube method

O=C1CCCCCC1 [cycloheptanone] + C1CCOCC1
speed of sound (303.15 K, x2 = 0.0845): 1411.9 ± 1.6 m/s
speed of sound (303.15 K, x2 = 0.1276): 1401.8 ± 1.6 m/s
speed of sound (303.15 K, x2 = 0.1794): 1389.8 ± 1.6 m/s
speed of sound (303.15 K, x2 = 0.2172): 1381.3 ± 1.6 m/s
speed of sound (303.15 K, x2 = 0.254): 1373.2 ± 1.6 m/s
speed of sound (303.15 K, x2 = 0.3098): 1361.1 ± 1.5 m/s
speed of sound (303.15 K, x2 = 0.341): 1354.6 ± 1.5 m/s
speed of sound (303.15 K, x2 = 0.3982): 1342.9 ± 1.5 m/s
speed of sound (303.15 K, x2 = 0.4407): 1334.6 ± 1.5 m/s
speed of sound (303.15 K, x2 = 0.4986): 1323.6 ± 1.5 m/s
speed of sound (303.15 K, x2 = 0.5312): 1317.5 ± 1.5 m/s
speed of sound (303.15 K, x2 = 0.5779): 1309.2 ± 1.5 m/s
speed of sound (303.15 K, x2 = 0.6295): 1300.3 ± 1.4 m/s
speed of sound (303.15 K, x2 = 0.6717): 1293.3 ± 1.4 m/s
speed of sound (303.15 K, x2 = 0.7229): 1285.2 ± 1.4 m/s
speed of sound (303.15 K, x2 = 0.7686): 1278.2 ± 1.4 m/s
speed of sound (303.15 K, x2 = 0.8202): 1270.6 ± 1.4 m/s
speed of sound (303.15 K, x2 = 0.8742): 1263 ± 1.4 m/s
mass density (303.15 K, x2 = 0.0845): 939.65 ± 1 kg/m3
mass density (303.15 K, x2 = 0.1276): 937.63 ± 1 kg/m3
mass density (303.15 K, x2 = 0.1794): 935.11 ± 1 kg/m3
mass density (303.15 K, x2 = 0.2172): 933.19 ± 1 kg/m3
mass density (303.15 K, x2 = 0.254): 931.26 ± 1 kg/m3
mass density (303.15 K, x2 = 0.3098): 928.23 ± 1 kg/m3
mass density (303.15 K, x2 = 0.341): 926.47 ± 1 kg/m3
mass density (303.15 K, x2 = 0.3982): 923.12 ± 1 kg/m3
mass density (303.15 K, x2 = 0.4407): 920.53 ± 1 kg/m3
mass density (303.15 K, x2 = 0.4986): 916.82 ± 1 kg/m3
mass density (303.15 K, x2 = 0.5312): 914.66 ± 1 kg/m3
mass density (303.15 K, x2 = 0.5779): 911.43 ± 1 kg/m3
mass density (303.15 K, x2 = 0.6295): 907.7 ± 1 kg/m3
mass density (303.15 K, x2 = 0.6717): 904.49 ± 1 kg/m3
mass density (303.15 K, x2 = 0.7229): 900.41 ± 1 kg/m3
mass density (303.15 K, x2 = 0.7686): 896.58 ± 1 kg/m3
mass density (303.15 K, x2 = 0.8202): 892.03 ± 1 kg/m3
mass density (303.15 K, x2 = 0.8742): 886.98 ± 1 kg/m3
speed of sound (308.15 K, x2 = 0.0845): 1389.1 ± 1.6 m/s
speed of sound (308.15 K, x2 = 0.1276): 1378.9 ± 1.6 m/s
speed of sound (308.15 K, x2 = 0.1794): 1366.9 ± 1.6 m/s
speed of sound (308.15 K, x2 = 0.2172): 1358.4 ± 1.6 m/s
speed of sound (308.15 K, x2 = 0.254): 1350.2 ± 1.5 m/s
speed of sound (308.15 K, x2 = 0.3098): 1338.2 ± 1.5 m/s
speed of sound (308.15 K, x2 = 0.341): 1331.6 ± 1.5 m/s
speed of sound (308.15 K, x2 = 0.3982): 1319.9 ± 1.5 m/s
speed of sound (308.15 K, x2 = 0.4407): 1311.6 ± 1.5 m/s
speed of sound (308.15 K, x2 = 0.4986): 1300.6 ± 1.5 m/s
speed of sound (308.15 K, x2 = 0.5312): 1294.6 ± 1.5 m/s
speed of sound (308.15 K, x2 = 0.5779): 1286.3 ± 1.5 m/s
speed of sound (308.15 K, x2 = 0.6295): 1277.4 ± 1.4 m/s
speed of sound (308.15 K, x2 = 0.6717): 1270.5 ± 1.4 m/s
speed of sound (308.15 K, x2 = 0.7229): 1262.4 ± 1.4 m/s
speed of sound (308.15 K, x2 = 0.7686): 1255.4 ± 1.4 m/s
speed of sound (308.15 K, x2 = 0.8202): 1247.9 ± 1.4 m/s
speed of sound (308.15 K, x2 = 0.8742): 1240.4 ± 1.4 m/s
mass density (308.15 K, x2 = 0.0845): 935.43 ± 1 kg/m3
mass density (308.15 K, x2 = 0.1276): 933.42 ± 1 kg/m3
mass density (308.15 K, x2 = 0.1794): 930.88 ± 1 kg/m3
mass density (308.15 K, x2 = 0.2172): 928.95 ± 1 kg/m3
mass density (308.15 K, x2 = 0.254): 927.02 ± 1 kg/m3
mass density (308.15 K, x2 = 0.3098): 923.95 ± 1 kg/m3
mass density (308.15 K, x2 = 0.341): 922.18 ± 1 kg/m3
mass density (308.15 K, x2 = 0.3982): 918.8 ± 1 kg/m3
mass density (308.15 K, x2 = 0.4407): 916.18 ± 1 kg/m3
mass density (308.15 K, x2 = 0.4986): 912.46 ± 1 kg/m3
mass density (308.15 K, x2 = 0.5312): 910.27 ± 1 kg/m3
mass density (308.15 K, x2 = 0.5779): 907.03 ± 1 kg/m3
mass density (308.15 K, x2 = 0.6295): 903.26 ± 1 kg/m3
mass density (308.15 K, x2 = 0.6717): 900.02 ± 1 kg/m3
mass density (308.15 K, x2 = 0.7229): 895.9 ± 1 kg/m3
mass density (308.15 K, x2 = 0.7686): 892.03 ± 1 kg/m3
mass density (308.15 K, x2 = 0.8202): 887.39 ± 1 kg/m3
mass density (308.15 K, x2 = 0.8742): 882.23 ± 1 kg/m3
